Laboratory results from patent publication US20060079453A1, “Hla binding peptides and their uses” (priority 2002, published 2006).
Values joined by “and” are separate entries in the source; they are usually repeats but may differ in a detail not shown here. Equal values may be shown once. Read-outs that look alike come from different tables or passages of the source. No end group written: not given here.

Experiments:
Assay in all cases: biochemical
[1] = target: H-2Dd (Mus musculus, UniProt P01900); type: binding, murine
H-2Dd, sequence (P01900 25-365): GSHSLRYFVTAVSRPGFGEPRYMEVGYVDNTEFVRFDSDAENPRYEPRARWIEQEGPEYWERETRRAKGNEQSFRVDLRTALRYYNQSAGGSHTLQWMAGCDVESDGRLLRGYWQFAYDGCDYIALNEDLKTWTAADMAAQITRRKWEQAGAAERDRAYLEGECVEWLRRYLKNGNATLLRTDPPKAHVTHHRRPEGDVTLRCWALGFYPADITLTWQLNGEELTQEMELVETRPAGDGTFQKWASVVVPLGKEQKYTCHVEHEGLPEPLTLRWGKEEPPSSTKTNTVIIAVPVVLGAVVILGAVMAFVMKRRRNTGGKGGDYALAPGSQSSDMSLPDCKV
H-2Dd, sequence (P61769 21-119, further chain): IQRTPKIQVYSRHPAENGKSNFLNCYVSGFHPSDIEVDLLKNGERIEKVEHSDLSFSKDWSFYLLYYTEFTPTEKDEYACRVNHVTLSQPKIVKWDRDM

[2] = target: HLA-DQ DQA1*0301/B*0301 (DQ7) (Homo sapiens, UniProt P01909+P01920, A209T/C70Q/DUP78-78/E183D/F237L/G63E/I129T/K197E/L178F/L74F/L98V/Q57E/Q76R/S185I/S97I/T49S/V73L); type: binding
[3] = target: HLA-DR DRB4*0101 (DR53) (Homo sapiens, UniProt P01903+P13762, G164S); type: binding
[4] = target: HLA-DR DRB1*1302 (DR13) (Homo sapiens, UniProt P01903+P01911, A100E/A169T/K41T/L162R/M171V/P40S/Q125H/Q178H/Q39Y/Q99D/R42S/S66N/T262R/V115G/W38E/Y61H); type: binding; settings: read-out: DRBI *1302
HLA-DR DRB1*1302 (DR13), sequence (P01903 26-254 limits assumed, other chains not shown): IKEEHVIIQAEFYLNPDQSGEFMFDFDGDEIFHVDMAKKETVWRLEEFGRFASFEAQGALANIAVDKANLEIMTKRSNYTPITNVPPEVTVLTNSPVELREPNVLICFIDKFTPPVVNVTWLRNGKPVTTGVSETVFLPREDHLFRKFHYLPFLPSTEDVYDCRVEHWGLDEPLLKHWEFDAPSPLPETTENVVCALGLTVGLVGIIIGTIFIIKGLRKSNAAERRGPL

[5] = target: HLA-DR DRB1*1101 (DR11) (Homo sapiens, UniProt P01903+P01911, A100R/A169T/A87E/I96F/K41T/L162R/M171V/P40S/Q125H/Q178H/Q39Y/Q99D/R42S/S66Y/T262R/V115G/W38E); type: binding
HLA-DR DRB1*1101 (DR11), sequence (P01903 26-254 limits assumed, other chains not shown): as above

[6] = target: HLA-DR DRB5*0101 (DR51) (Homo sapiens, UniProt P01903+Q30154); type: binding
[7] = target: HLA-DR DRB1*1501 (DR15) (Homo sapiens, UniProt P01903+P01911); type: binding
[8] = target: HLA-B*3501 (Homo sapiens, UniProt P01889, A329T/A93T/A95T/C349S/D201E/D98Y/E176V/E187L/E204Q/E69T/I218V/K202T/L119I/Q94N/R155S/R180L/S121R/S35A/S48A/T118I/V127L/V306I/V36M/Y140S/Y91F); settings: B*3501 binding affinity (IC50)
[9] = target: HLA-B*5101 (Homo sapiens, UniProt P01889, A329T/A93T/A95T/C349S/D138N/D201E/D98Y/E187L/E204Q/E69T/G107R/I218V/K202T/L105A/L119W/N104I/Q94N/R106L/R155S/R180L/S101N/S121T/S35A/S48A/V306I/V36M/Y195H/Y91F); settings: B*5101 binding affinity (IC50)
[10] = target: HLA-B*5401 (Homo sapiens, UniProt P01889, A329T/C349S/D138N/D201E/E176V/E187T/E204Q/E69G/I76V/K202T/L119W/R155S/R180L/S121T/S35A/S48A/V127L/V306I/V36M/Y140L); type: binding; settings: B*5401 binding affinity (IC50)
[11] = target: HLA-B*0702 (Homo sapiens, UniProt P01889); type: binding
[12] = target: HLA-DR DRB1*0701 (DR7) (Homo sapiens, UniProt P01903+P01911, A100R/A102G/A103Q/D57E/D86V/E43K/F76Y/K127E/L162R/M171V/P40G/Q125H/Q99D/R33Q/R42Y/R54Q/S133A/S66F/T210M/V115G/Y107V/Y59L/Y89S); type: binding; settings: DRB1 *0701
[13] = target: HLA-DR DRB1*0802 (DR8) (Homo sapiens, UniProt P01903+P01911, A100R/A103L/A169T/F76Y/H45Y/I96F/K41T/L162R/M171V/P40S/Q125H/Q178H/Q39Y/Q99D/R218S/R42G/S66Y/V115G/W38E); type: binding
[14] = target: HLA-DR DRB1*0401 (DR4) (Homo sapiens, UniProt P01903+P01911, A100K/A169T/F76Y/I96L/K127E/L162R/M171V/N62H/P40V/Q125Y/R42H/S133A/S149N/S66Y/V115G/V209L/W38E); type: binding; settings: DRB1 *0401
[15] = target: HLA-DR DRB1*0901 (DR9) (Homo sapiens, UniProt P01903+P01911, A100R/A103E/D57H/D86V/F55Y/F60I/F76Y/I96F/K127E/L162R/M171V/P40D/Q125H/Q99R/R33Q/R42F/S133A/S66N/T210M/V115G/W38K/Y107V/Y59G/Y89S); type: binding; settings: DRB1 *0901
[16] = target: HLA-DR DRB1*0405 (DR4) (Homo sapiens, UniProt P01903+P01911, A100R/A169T/D86S/F76Y/I96L/K127E/L162R/M171V/N62H/P40V/Q125Y/R42H/S133A/S149N/S66Y/V115G/V209L/W38E); type: binding; settings: DRB1 *0405
[17] = target: HLA-DR DRB3*0101 (DR52) (Homo sapiens, UniProt P01903+P79483); type: binding
[18] = target: HLA-DR DRB1*0301 (DR3) (Homo sapiens, UniProt P01903+P01911, A100K/A102G/A103R/A169T/F55Y/I96L/K41T/L162R/M171V/P40S/Q125H/Q178H/Q39Y/R42S/S66N/T106N/T262R/W38E/Y61H); type: binding
HLA-DR DRB1*0301 (DR3), sequence (P01903 26-254 limits assumed, other chains not shown): as above

[19] = target: H-2 Db (Mus musculus, UniProt P01899); type: binding, murine; settings: Db
H-2 Db, sequence (P61769 21-119): as the sequence (P61769 21-119, further chain) above
H-2 Db, sequence (P01899 25-362): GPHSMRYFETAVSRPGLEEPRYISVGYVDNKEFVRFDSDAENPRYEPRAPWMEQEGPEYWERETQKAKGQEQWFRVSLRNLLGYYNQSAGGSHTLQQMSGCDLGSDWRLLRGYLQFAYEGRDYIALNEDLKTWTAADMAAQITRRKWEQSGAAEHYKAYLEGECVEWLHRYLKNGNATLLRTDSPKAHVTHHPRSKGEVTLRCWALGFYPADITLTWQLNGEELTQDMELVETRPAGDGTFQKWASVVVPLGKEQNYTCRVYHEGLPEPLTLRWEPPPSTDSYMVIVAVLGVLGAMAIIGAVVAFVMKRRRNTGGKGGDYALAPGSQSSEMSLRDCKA

For RGPGRYFVTI, the IC50 [1] was 2.7 nM.
Work on IDWDLGGLAENFLPY yielded an IC50 ([2]; read-out: DQB1*0301) of 218 nM.
In the case of RGPGRAFYTI, the IC50 [1] is reported as 7.2 nM.
GSDLVEALYLVCGER gave an IC50 [2] greater than 89300 nM.
Work on RGPFRAFVTI yielded an IC50 [1] of 0.78 nM.
With RGAYRAFVTI the IC50 [1] was 3.4 nM.
Compound KEDSHCAWTWRVEI has an IC50 ([2]; read-out: DQB1*0301) of 4100 nM.
Work on QLQQFQKEDAAVTIY yielded an IC50 ([3]; read-out: DRB4 *0101) of 1340 nM, an IC50 ([2]; read-out: DQB1*0301) of 26200 nM and an IC50 [4] of 68 nM. It also gave an IC50 ([5]; read-out: DRB1 *1101) greater than 408000 nM, an IC50 ([6]; read-out: DRB5 *0101) of 4270 nM and an IC50 ([7]; read-out: DRBI *1501) of 1720 nM.
With QKEDAAVTIYIEMLQN the IC50 ([2]; read-out: DQB1*0301) was 515 nM.
RPQVPLRPMTI was tested, and the IC50 [8] was > 19000 nM and 10500 nM, the IC50 [9] was 8080 nM and the IC50 [10] was greater than 15100 nM.
For FPVRPQVPI, the IC50 [8] was 124 nM, the IC50 [9] was 39 nM and the IC50 [10] was 9.1 nM. For the same compound, the IC50 ([11]; B*0702 binding affinity (IC50)) was 94 nM.
With RGKYRAFVTI the IC50 [1] was 67 nM.
GPKVKQWPI was tested, and the IC50 [8] was greater than 72000 nM, the IC50 [9] was greater than 55000 nM and the IC50 [10] was greater than 50000 nM. For the same compound, the IC50 ([11]; B*0702 binding affinity (IC50)) was 5500 nM.
With RGPYRAFVKI the IC50 [1] was 3.9 nM.
RGPGRAYVTI gave an IC50 [1] of 14 nM.
FSPRRNGYL gave an IC50 [1] of 2.7 nM.
Work on XVXDNATEY yielded an IC50 ([11]; read-out: B*0702 binding affinity (IC50)) greater than 55000 nM.
Compound DDVWLGGLAEKFLPY has an IC50 ([2]; read-out: DQB1*0301) of 241 nM.
APRTGPGPGL was tested, and the IC50 ([11]; B*0702 binding affinity (IC50)) was 15 nM.
With RGPYRAAVTI the IC50 [1] was 2 nM.
`CC[C@H](C)[C@H](NC(=O)[C@@H](N)CCCCN)C(=O)N[C@@H](Cc1ccccc1)C(=O)NCC(=O)N[C@@H](CO)C(=O)N[C@@H](CC(C)C)C(=O)N[C@@H](C)C(=O)N[C@@H](Cc1ccccc1)C(=O)N[C@@H](CC(C)C)C(=O)N1CCC[C@H]1C(=O)N[C@@H](CCC(=O)O)C(=O)N[C@@H](CO)C(=O)N[C@@H](Cc1ccccc1)C(=O)N[C@@H](CC(=O)O)C(=O)NCC(=O)N[C@@H](CC(=O)O)C(=O)N1CCC[C@H]1C(=O)N[C@@H](C)C(=O)O` was tested, and the IC50 ([3]; DRB4 *0101) was 10000 nM, the IC50 [12] was 377 nM and the IC50 [13] was greater than 75400 nM. The IC50 [14] was 1200 nM, the IC50 [2] was 320 nM and the IC50 [15] was 15800 nM. It also gave an IC50 [16] of 37 nM, an IC50 ([5]; DRB1 *1101) greater than 52600 nM and an IC50 [17] of 43700 nM. The IC50 ([6]; DRB5 *0101) was 8010 nM, the IC50 [18] was 74200 nM and the IC50 ([7]; DRBI *1501) was 2260 nM.
Compound `CSCC[C@H](NC(=O)[C@H](C)NC(=O)[C@H](C)NC(=O)[C@H](Cc1ccc(O)cc1)NC(=O)[C@H](C)NC(=O)[C@H](C)NC(=O)[C@H](C)NC(=O)[C@H](C)N)C(=O)O` has an IC50 [19] greater than 44000 nM.
For APGPGPGTAL [APGPGPGTAL], the IC50 ([11]; B*0702 binding affinity (IC50)) was 81 nM.
With APAAGPGPGPA the IC50 ([11]; B*0702 binding affinity (IC50)) was 173 nM.
SGVENPGGYCL was tested, and the IC50 [19] was 60 nM.
In the case of YMRVNGKWM, the IC50 [19] is reported as 50 nM.
For APRGPGPGL, the IC50 ([11]; B*0702 binding affinity (IC50)) was 4.9 nM.
WGPSLYSIL showed an IC50 [1] of 6.6 nM.
Compound WGPSLYSI has an IC50 [1] of 17 nM.
With KAVYNFATCGI the IC50 [19] was 29 nM.
In the case of CMANNSHHYI, the IC50 [19] is reported as 220 nM.
For RGPYRAFVTK, the IC50 [1] was 91 nM.
CSANNSHHYM showed an IC50 [19] of 42 nM.
For `CSCC[C@H](NC(=O)[C@H](C)NC(=O)[C@H](C)NC(=O)[C@H](C)NC(=O)[C@H](C)NC(=O)[C@H](Cc1ccc(O)cc1)NC(=O)[C@H](C)NC(=O)[C@H](C)NC(=O)[C@H](C)NC(=O)[C@H](C)N)C(=O)O`, the IC50 [19] was greater than 44000 nM.
